Reference: patent publication US5951473A, “Determination of intracellular sodium and potassium ions by NMR” (Board of Regents, The University of Texas System, priority 1997, dated 1999)
“Also recorded” adds a separate entry of the source.

Legend:
[1] = test system: sodium in in vivo liver; settings: cited from earlier work
[2] = test system: sodium in in vivo liver; test: In vivo liver ^23 Na NMR with DyTTHA^3- (Blum et al., literature); settings: dose of Blum et al. versus present methods
Method: This dose is about 4-6 times greater than a typical dose of MRI contrast agent (0.1-0.2 mmole kg^-1 ), such as GdDTPA^2-. The inventors are aware of only one other ^23 Na NMR study of in vivo liver using a SR. Blum, H., Osbakken, M. D. & Johnson, R. G. (1991) Magn. Reson. Med. 18, 348-357 infused 6 mmoles kg^-1 h^-1 of DyTTHA^3- for 60 to 90 minutes to discriminate between intra- and extracellular sodium. This SR dose is 8-12 times larger than the amount of TmDOTP^5- employed using the methods of the present invention. After DyTTHA^3- infusion, Blum, H., Osbakken, M. D. & Johnson, R. G. (1991) Magn. Reson. […] This is extremely important for valid measurement of tissues volumes, relaxation rates, and ^23 Na visibility during physiological interventions.

[3] = test system: kidney sodium; test: In vivo ^23 Na NMR of kidney during shift reagent infusion; design: species or system rat (Sprague-Dawley)
Method: Male Sprage-Dawley rats were prepared for magnetic resonance exam and TmDOTP^5- was infused into animals as described in Example 2. TmDOTP^5- produced well resolved ^23 Na resonances in the kidney with a separation of 7-10 ppm between the extra- and intracellular Na^+ resonances after infusion of about 0.681 mmoles of the SR per Kilogram of Body Weight (KgBW). The inventors also observed a third ^23 Na resonance, broader than the extracellular resonance and shifted to about 35 ppm. This is the first time this resonance has been observed in any SR aided experiment in any organ. After about 10 minutes of TmDOTP^5- infusion (infusion dose 0.147 mmoles/KgBW), one broad shifted resonance became apparent at about 15 ppm. Continued infusion of the SR shifted this resonance further upfield. Simultaneously, another resonance became visible as a high frequency shoulder on the unshifted resonance after about 14 minutes of infusion (infusion dose 0.254 mmoles/KgBW). Finally, the three resonances became clearly resolved after about 17 minutes of infusion (infusion dose 0.334 mmoles/KgBW).
The single ^23 Na resonance broadened with infusion of this shift reagent and the intracellular Na^+ resonance became evident as a shoulder on the shifted extracellular Na^+ resonance only after 3-5 mmoles of DyTTHA^3- /KgBW had been infused.

[4] = test system: intra- and extracellular sodium of rat liver; test: In vivo ^23 Na NMR shift experiments in rat liver during shift reagent infusion; settings: for ^23 Na shift and line broadening in words: DyTTHA^3- versus TmDOTP^5-; for dose required to induce a ^23 Na shift of 5 ppm: body weight; for peak width at half height, extracellular resonance / peak width at half height, intracellular resonance: resonances separated by 5 ppm
Method: (§1) Animal Preparation: Male Sprague-Dawley rats weighing 350-450 g were initially anesthetized by intramuscular injection of a 0.5 ml mixture of ketamine (13 mg/ml) and xylazine (87 mg/ml). Both jugular veins and a carotid artery were cannulated through a midline neck incision. One jugular vein was used to maintain the anesthesia (2 mg/ml ketamine, 0.25 mg/ml xylazine in 5% guaifenesin) at a rate of 2-3 ml/hour, and the other was used to infuse SR. The blood pressure and heart rate were continuously monitored from the carotid artery during the NMR experiments using a Gould transducer and Coulbourn polygraph. A tracheotomy was performed and the rat was connected to a respirator and maintained at a respiration rate of 90 breaths/minute and a tidal volume of 3 cc. The rats were also nephrectomized to eliminate clearance of the shift reagent, except in those animals where SR clearance was measured. Livers were exposed through a subcostal incision and a surface coil was positioned directly on the liver with the animal in a supine position. The animals were maintained at 37° C. using a water recirculating heating pad.
(§2) SR Infusion: Stock solutions of 80 mM TmDOTP^5- or 400 mM DyTTHA^3- were initially infused at a rate of 2 ml/hr for 6 minutes. […] After achieving a chemical shift difference of 5-7 ppm between the intra- and extracellular sodium resonances, the infusion rate was reduced to 2-3 ml/hr. No Ca^2+ was added during infusion of either SR.
(§3) NMR Data Collection: All in vivo NMR experiments were performed on a 4.7-T 40-cm GE CSI Omega spectrometer (GE NMR Instruments, Fremont, Calif.). Shimming was performed on the sodium signal. A sodium line width of 35-40 Hz was typical. Both ^23 Na and ^31 P spectra were collected in an interleaved fashion during TmDOTP^5- infusion. […] The coil performance was optimized such that there was less sensitivity loss at the ^31 P frequency as compared to at the ^23 Na frequency.
(§4) Switching of these parameters and the spectrometer frequency was executed by a script in an automated fashion. To take advantage of the short spin-lattice relaxation time of sodium, two ^23 Na acquisitions were collected between each ^31 P acquisition. Cyclops phase cycling was used for both the nuclei. […] The FIDs were Fourier transformed after base-line correction and a single exponential multiplication corresponding to 10 Hz line broadening for ^23 Na and a 20 Hz line broadening for ^31 P.

[5] = test system: rat muscle; settings: cited from earlier work
[6] = ^23 Na NMR of blood and urine samples during shift reagent infusion; format: in vivo, rat (Sprague-Dawley); settings: after DyTTHA^3- infusion
Excerpt: ^23 Na spectra obtained from the analysis of the blood and urine samples collected during infusion of either TmDOTP^5- or DyTTHA^3- were compared with the respective in vivo kidney spectrum. […] There was a signal from the urine sample at abut 35 ppm after infusion of DyTTHA^3- also, though there was no distinguishable signal in the corresponding in vivo spectrum (FIG. 3A and FIG. 3B).

[7] = test system: renal phosphate metabolites; test: In vivo ^31 P NMR of kidney and blood pressure during TmDOTP^5- infusion; design: species or system rat (Sprague-Dawley)
[8] = rat, in vivo
Method: as §1, §2
(§5) Several key physiological measurements were obtained on a group of animals (n=7) during infusion of TmDOTP^5- using the same protocol as used during all subsequent NMR measurements. […] Excess Ca^2+ was not coadded with the SR in these experiments, unlike in isolated perfused heart experiments where excess Ca^2+ must be coadded with TmDOTP^5- to maintain an extracellular free [Ca^2+ ] of about 1 mM.
(§6) Serum sodium, potassium, and hemoglobin concentrations as well as arterial pH, pCO2 and pO2 were monitored throughout the infusion protocol using a standard clinical blood gas analyzer.

[9] = test system: rat liver Na^+ (i) and Na^+ (e)
Method: Rats with third degree burns covering 40% of the body surface were employed. Adult male Sprague-Dawley rats (300-500 g) were randomly divided into burn (n=7) and sham-burn (n=4) groups. […] Rats were deeply anesthetized with methoxyflurane, shaved, and secured in a template device. A full-thickness scald burn over 40% of the total body surface area was produced by immersing the exposed body surface into a 100° C. water bath for 12 s on the back and sides. The animals were quickly dried after each exposure to avoid additional injury. […] The sham-burn rats were anesthetized and handled in an identical manner except they were exposed to room temperature water. After recovery from inhalation anesthesia, the animals were placed in separate cages and given food and water ad libitum.
At 24-hr postburn, the animals were anesthetized by intramuscular injection of a 0.5 ml mixture of ketamine (87 mg/ml) and xylazine (13 mg/ml) and were placed on a warming blanket. The left femoral vein, left femoral artery, and left jugular vein were cannulated for supplemental anesthesia for arterial blood pressure measurement and for infusion of the shift reagent, respectively. Heparinized saline, 9 U/ml, was used in the arterial line. A midline laparotomy was performed to expose the liver, and the xiphoid process was removed. Each rat was then secured in a cradle in an upright position for the MRS experiments. A 2.2 cm diameter surface coil dual tuned to 47 MHz for ^23 Na and 72 MHz for ^31 P was positioned over the intersection of the three major lobes and the abdominal incision was sutured in separate layers around the insulated coil leads to prevent fluid and heat loss during NMR data collection.
Concurrent ^23 Na and ^31 P spectra were collected using a Nicolet NT 180 spectrometer with an Oxford 4.2 T vertical bore (130 mm) superconducting magnet. The field homogeneity was adjusted first with the ^1 H free induction decay (FID) from the liver and then with the ^23 Na FID for maximum field uniformity. A ^23 Na line width of 40-50 Hz was typical. ^23 Na spectra were generated from the summed FIDs of 100 excitation pulses (40 μs) at 105-ms intervals using 1,024 word data files and a sweep width of ±3000 Hz. The spectra were zero-filled to 4,096 points before Fourier transformation. The relative areas of the Na^+ (i) and Na^+ (e) resonances in the ^23 Na spectra and of the β-ATP and Pi resonances in the phosphorus spectra were determined with the GEMCAP curve analysis program supplied with the Nicolet software.
After initial baseline spectra were obtained, infusion of TmDOTP^5 was begun at 0.5 mmol kg^-1 h^-1, and the rate was increased slowly to 1.2 or 1.6 mmol kg^-1 h^- over a period of 12 min. […]

[10] = Physiological measurements (heart rate, pressure, blood serum and gas values) in rats during TmDOTP^5- infusion; settings: doses required for baseline resolution of ^23 Na resonances
Method: as §1, §2, §5, §6

[11] = rat, in vivo; remark: listed apart in the source
Method: Rats with third degree burns covering 40% of the body surface were employed. Adult male Sprague-Dawley rats (300-500 g) were randomly divided into burn (n=7) and sham-burn (n=4) groups. […] Rats were deeply anesthetized with methoxyflurane, shaved, and secured in a template device. A full-thickness scald burn over 40% of the total body surface area was produced by immersing the exposed body surface into a 100° C. water bath for 12 s on the back and sides. The animals were quickly dried after each exposure to avoid additional injury. No postburn analgesics were administered for this model, since the burn injury was a full-thickness burn that destroys all cutaneous nerve endings; as a result, the rats experienced no postburn pain as evidenced by their eating, drinking, moving freely around the cage, and responding to external stimulus. The sham-burn rats were anesthetized and handled in an identical manner except they were exposed to room temperature water. After recovery from inhalation anesthesia, the animals were placed in separate cages and given food and water ad libitum.
At 24-hr postburn, the animals were anesthetized by intramuscular injection of a 0.5 ml mixture of ketamine (87 mg/ml) and xylazine (13 mg/ml) and were placed on a warming blanket. The left femoral vein, left femoral artery, and left jugular vein were cannulated for supplemental anesthesia for arterial blood pressure measurement and for infusion of the shift reagent, respectively. Heparinized saline, 9 U/ml, was used in the arterial line. A midline laparotomy was performed to expose the liver, and the xiphoid process was removed. Each rat was then secured in a cradle in an upright position for the MRS experiments. A 2.2 cm diameter surface coil dual tuned to 47 MHz for ^23 Na and 72 MHz for ^31 P was positioned over the intersection of the three major lobes and the abdominal incision was sutured in separate layers around the insulated coil leads to prevent fluid and heat loss during NMR data collection. […]

[12] = Bansal et al. 1992; cited from earlier work
[13] = test system: in vivo exposed livers; settings: rat
Method: Animal Preparation: Male Sprague-Dawley rats weighing 350-450 g were initially anesthetized by intramuscular injection of a 0.5 ml mixture of ketamine (13 mg/ml) and xylazine (87 mg/ml). Both jugular veins and a carotid artery were cannulated through a midline neck incision. One jugular vein was used to maintain the anesthesia (2 mg/ml ketamine, 0.25 mg/ml xylazine in 5% guaifenesin) at a rate of 2-3 ml/hour, and the other was used to infuse SR. The blood pressure and heart rate were continuously monitored from the carotid artery during the NMR experiments using a Gould transducer and Coulbourn polygraph. A tracheotomy was performed and the rat was connected to a respirator and maintained at a respiration rate of 90 breaths/minute and a tidal volume of 3 cc. The rats were also nephrectomized to eliminate clearance of the shift reagent, except in those animals where SR clearance was measured. […]
The resting transmembrane potential (-Em) was measured in in vivo exposed livers using a modified Ling-Gerard ultramicroelectrode Holliday, R. L., Illner, H. P. & Shires, G. T. (1981) J. Surg. […] Serum sodium, potassium, and hemoglobin concentrations as well as arterial pH, pCO2 and pO2 were monitored throughout the infusion protocol using a standard clinical blood gas analyzer.

[14] = test system: rat liver; settings: in vivo, iv
Method: as §1
The washout rate of TmDOTP^5- was measured by monitoring the frequency of the shifted ^23 Na peak after stopping the infusion.

[15] = test system: rat liver phosphate metabolites and intracellular pH; test: In vivo ^31 P NMR (interleaved) of rat liver during shift reagent infusion
Method: as §1, §2, §3, §4

[16] = test system: rat brain; settings: cited from earlier work
[17] = live rats, Bansal et al. 1992; cited from earlier work

Question: For `O=C([O-])CN(CCN(CCN(CC(=O)[O-])CC(=O)[O-])CC(=O)[O-])CCN(CC(=O)[O-])CC(=O)[O-].[Dy+3]` [DyTTHA^3-, dysprosium(III)triethylenetetraminehexaacetate], which “resolution of sodium resonances in words” value ([1]; 6 mmoles kg^-1 h^-1 for 60 to 90 minutes) is on record?
Answer: The value was “very broad and were not resolved”.

Question: What about the “extracellular Na^+ signal shift in words” value ([1]; Blum et al.) of the same compound?
Answer: Its value is “shifted downfield by about the same amount as in the present study”.

Question: And the “dose ratio of DyTTHA^3- versus TmDOTP^5-” value [2]?
Answer: Its value is 8-12 times.

Question: What about the “dose at which intracellular Na^+ resonance became evident as a shoulder” value ([3]; kidney) of the same compound?
Answer: The value was 3-5 mmoles/KgBW.

Question: What about the “dose ratio versus TmDOTP^5- for comparable shift” value ([3]; kidney) of the same compound?
Answer: Its value is 5-8 times.

Question: What about the “resolution of Na^+ resonances in kidney in words” value ([3]; kidney in vivo) of the same compound?
Answer: The value was “did not produce resolved Na^+ resonances”.

Question: And the “third highly shifted Na^+ resonance in kidney in words” value ([3]; kidney in vivo)?
Answer: The value was “no indication of the existence of the third highly shifted Na^+ resonance”.

Question: What about the “broadening factor of intracellular resonance line-width, DyTTHA^3- versus TmDOTP^5-” value ([4]; rat liver) of the same compound?
Answer: The value was ~3 factor.

Question: What about the “resolution of intra- and extracellular ^23 Na resonances in words” value ([4]; rat liver) of the same compound?
Answer: The value was “very broad and not resolved; also recorded: did not improve the resolution of intra- and extracellular resonances”.

Question: And the “^23 Na shift and line broadening in words” value ([4]; rat liver)?
Answer: Its value is “much lower ^23 Na shift per unit concentration and more severe line broadening”.

Question: What about the “dose required to induce a ^23 Na shift of 5 ppm” value ([4]; rat liver) of the same compound?
Answer: The value was 3.74 mmol/kg.

Question: And the “peak width at half height, extracellular resonance” value ([4]; rat liver)?
Answer: The value was 300 Hz.

Question: And the “peak width at half height, intracellular resonance” value ([4]; rat liver)?
Answer: Its value is 195 Hz.

Question: And the “hemodynamic stability during infusion” value ([4]; versus TmDOTP^5-)?
Answer: The value was “hemodynamically more stable”.

Question: What about the “washout t1/2” value [5] of the same compound?
Answer: Its value is 44 min.

Question: And the “shift of ^23 Na signal from urine sample” value [6]?
Answer: The value was ~35 ppm.

Question: With “thulium(III) 1,4,7,10-tetraazacyclododecane-1,4,7,10-tetrakis (methylene phosphonate) [TmDOTP^5-]” as the compound, how does the “renal high energy phosphate levels” value ([7]; kidney) read?
Answer: Its value is “unaffected”.

Question: What about the “^31 P resonance areas and chemical shifts, kidney” value ([7]; kidney during infusion) of the same compound?
Answer: The value was “did not produce any change”.

Question: What about the “blood pressure of the animals” value ([7]; kidney study) of the same compound?
Answer: Its value is “small drop in blood pressure”.

Question: And the “arterial pCO2” value [8]?
Answer: Its value is 45±2 mm Hg.

Question: What about the “arterial pH” value [8] of the same compound?
Answer: The value was 7.36±0.02.

Question: And the “arterial pO2” value [8]?
Answer: Its value is 120±8 mm Hg.

Question: What about the “developed pressure during infusion” value [8] of the same compound?
Answer: The value was 40±5 mm Hg.

Question: And the “free Ca^2+ levels in blood serum” value [8]?
Answer: Its value is “relatively small change”.

Question: What about the “heart rate during infusion” value [8] of the same compound?
Answer: Its value is 240±20.

Question: And the hemoglobin [8]?
Answer: The hemoglobin was 13 ± 1 g/dL.

Question: And the “increase in serum sodium” value [8]?
Answer: The value was 10 meq/L.

Question: What about the “mean arterial pressure (MAP) during infusion” value [8] of the same compound?
Answer: Its value is ~70 mm Hg.

Question: And the serum potassium [8]?
Answer: Its serum potassium is 3.5±0.2 meq/L.

Question: And the “serum sodium after infusion” value [8]?
Answer: The value was 158±5 meq/L.

Question: What about the “total dosage needed to produce an equivalent Na^+ shift, burned animals” value ([9]; burned rats, liver) of the same compound?
Answer: The value was 0.44 ± 0.04 mmol.

Question: And the “total dosage needed to produce an equivalent Na^+ shift, control animals” value ([9]; control rats, liver)?
Answer: Its value is 0.64 ± 0.08 mmol.

Question: What about the “Na^+ (i) concentration in hepatic cells on infusion” value ([9]; rat, in vivo) of the same compound?
Answer: The value was “did not alter Na^+ (i) concentration in hepatic cells”.

Question: What about the “^31 P spectra of livers during infusion” value ([9]; rat, in vivo) of the same compound?
Answer: The value was “did not change appreciably”.

Question: And the “liver physiology / tolerability in words” value [10]?
Answer: The value was “may be safely used in intact animal studies without the co-addition of Ca^2+; also recorded: basic liver physiology is largely unaffected; also recorded: quite non-perturbing to the animal”.

Question: What about the “heart rate throughout the study” value [11] of the same compound?
Answer: Its value is 261±19 beats/min.

Question: What about the “mean arterial blood pressure (MAP) after infusion, burn group” value [11] of the same compound?
Answer: Its value is 65±4 mm Hg.

Question: And the “mean arterial blood pressure (MAP) after infusion, sham burn group” value [11]?
Answer: The value was 78±3 mm Hg.

Question: What about the “crossing of the blood brain barrier” value [12] of the same compound?
Answer: The value was “does not cross the blood brain barrier”.

Question: And the “intracellular Na^+ resonance intensity with further infusion, kidney” value ([3]; kidney in vivo)?
Answer: The value was “does not change with further SR infusion”.

Question: What about the “resolution of Na^+ resonances in kidney in words” value ([3]; kidney in vivo) of the same compound?
Answer: Its value is “well resolved”.

Question: And the “separation between extra- and intracellular Na^+ resonances” value ([3]; kidney, about 0.681 mmoles/KgBW)?
Answer: Its value is 7-10 ppm.

Question: What about the “shift of broad shifted resonance” value ([3]; kidney, about 10 minutes, 0.147 mmoles/KgBW) of the same compound?
Answer: Its value is “about 15 ppm”.

Question: And the “infusion dose at which second resonance became visible as shoulder” value ([3]; kidney, about 14 minutes)?
Answer: Its value is 0.254 mmoles/KgBW.

Question: And the “infusion dose at which three resonances became clearly resolved” value ([3]; kidney, about 17 minutes)?
Answer: Its value is 0.334 mmoles/KgBW.

Question: And the “shift of third ^23 Na resonance” value ([3]; kidney, after TmDOTP^5- infusion)?
Answer: The value was “about 35 ppm”.

Question: And the “dose at which intra- and extracellular ^23 Na resonances were clearly resolved” value ([4]; rat liver)?
Answer: The value was 0.55 mmol/kg.

Question: What about the “intracellular Na^+ peak intensity with further infusion” value ([4]; rat liver) of the same compound?
Answer: Its value is “did not change with further infusion”.

Question: And the “resolution of intra- and extracellular ^23 Na resonances in words” value ([4]; rat liver)?
Answer: Its value is “sharp and well resolved; also recorded: baseline resolved peaks”.

Question: What about the “^23 Na shift and line broadening in words” value ([4]; rat liver) of the same compound?
Answer: Its value is “larger ^23 Na chemical shift per unit concentration”.

Question: What about the “paramagnetic shift of extracellular Na^+” value ([4]; rat liver, after 0.65 mmoles kg^-1) of the same compound?
Answer: Its value is “approximately 5 ppm”.

Question: And the “dose required to induce a ^23 Na shift of 5 ppm” value ([4]; rat liver)?
Answer: The value was 0.65 mmol/kg.

Question: What about the “peak width at half height, extracellular resonance” value ([4]; rat liver) of the same compound?
Answer: Its value is 80 Hz.

Question: What about the “peak width at half height, intracellular resonance” value ([4]; rat liver) of the same compound?
Answer: The value was 70 Hz.

Question: And the “resting transmembrane potential (-Em) of liver” value [13]?
Answer: Its value is “tended to increase during the highest infusion rates”.

Question: What about the “washout t1/2” value [14] of the same compound?
Answer: Its value is 9 min.

Question: What about the “^31 P resonances / phosphate metabolites” value ([15]; rat liver during infusion) of the same compound?
Answer: The value was “without producing any changes in phosphate metabolite resonances; also recorded: unaffected”.

Question: And the “intracellular pH” value ([15]; rat liver, from shift of inorganic phosphate peak)?
Answer: The value was “without producing any changes in phosphate metabolite resonances or intracellular pH; also recorded: unaffected”.

Question: What about the “washout t1/2” value [16] of the same compound?
Answer: Its value is 37 min.

Question: What about the “Ca^2+ release from body stores during infusion” value [17] of the same compound?
Answer: The value was “rapidly released from body stores”.
